The source of these data is patent publication US20240025906A1 (NEURON23, INC., priority 2022, published 2024).

Each structure is given as a SMILES string.

Assay [1] relates to JAK1/TYK2 pSTAT5 (Tyr694/699) in THP-1 cell line. Nature of the assay: IFNa-stimulated JAK1/TYK2 pSTAT5 (Tyr694/699) inhibition cellular assay, AlphaLISA. Type of assay: cell-based. As to conditions: Homo sapiens; THP-1 cells, IFNa-stimulated, AlphaLISA (Assay B); read-out: Cellular_THP1_IFNa-pSTATS_TYK2. In short, it runs like this:
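THP-1 cells (2e4/well in HBSS) were preincubated with compound (8 points, 6-fold steps from 10000 nM final) for 1 h at 37 °C, then stimulated with IFNa (added at 100 ng/mL) for 30 min. Lysate pSTAT5 was read by AlphaLISA at 615 nm. IC50 came from a 4-parameter fit with bottom 0 and Hill −1.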
Background: Alpha assays give light when donor and acceptor beads are brought close together.

A further assay concerns the target T1, TYK2 JH2 (Homo sapiens, UniProt P29597).
T1 construct: purchased DiscoverX (KINOMEscan KdELECT service); host or cells: E. coli BL21-derived (T7 phage display) or HEK-293
Put plainly: TYK2 JH2 binding assay (KINOMEscan KdELECT competitive binding). As to conditions: TYK2 JH2 domain, DiscoverX KINOMEscan KdELECT (Assay A); read-out: Biochemical TYK2_DiscoverX_JH2_BND_Kd. The gist of the method: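 Beads carrying a biotinylated ligand were mixed with tagged JH2 kinase and compound (11 points, 3-fold steps, 0.9% DMSO) and shaken 1 h at room temperature. After washing, kinase was released with 0.5 μM untagged ligand over 30 min and measured by qPCR to derive Kd.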

T1 sequence (P29597 589-875 limits assumed): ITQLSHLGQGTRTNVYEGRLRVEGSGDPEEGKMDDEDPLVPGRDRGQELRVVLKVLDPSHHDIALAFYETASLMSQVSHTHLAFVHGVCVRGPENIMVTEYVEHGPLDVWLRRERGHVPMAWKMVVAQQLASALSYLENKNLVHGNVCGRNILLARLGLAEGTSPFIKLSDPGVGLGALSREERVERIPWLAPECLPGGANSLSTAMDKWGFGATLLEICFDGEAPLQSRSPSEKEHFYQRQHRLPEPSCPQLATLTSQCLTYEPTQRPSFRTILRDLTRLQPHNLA

As for `CNc1ncc(-c2nc3ccc(N4CC5CN(C)CC(C4)O5)cn3n2)c2cc(NC(=O)C3(F)CC3)ncc12` [Example 559, 1-fluoro-N-(5-(6-(7-methyl-9-oxa-3,7-diazabicyclo[3.3.1]nonan-3-yl)-[1,2,4]triazolo[1,5-a]pyridin-2-yl)-8-(methylamino)-2,7-naphthyridin-3-yl)cyclopropane-1-carboxamide], in assay [1], the IC50 was no more than 500 nM. For the same compound, the Kd on TYK2 JH2 is no more than 100 nM.
Consider `CNc1ncc(-c2nc3ccc(N4CC5CN(C)CC(C4)O5)cn3n2)c2cc(NC(=O)[C@H]3C[C@H]3C)ncc12` [Example 560, (1S,2R)-2-methyl-N-(5-(6-(7-methyl-9-oxa-3,7-diazabicyclo[3.3.1]nonan-3-yl)-[1,2,4]triazolo[1,5-a]pyridin-2-yl)-8-(methylamino)-2,7-naphthyridin-3-yl)cyclopropane-1-carboxamide], for which the IC50 in assay [1] was no more than 500 nM. Besides, the Kd on TYK2 JH2 was no more than 100 nM.
Regarding `CNc1ncc(-c2nc3ccc(C)cn3n2)c2cc(NC(=O)C3CCC3)ncc12` [Example 561, N-(5-(6-methyl-[1,2,4]triazolo[1,5-a]pyridin-2-yl)-8-(methylamino)-2,7-naphthyridin-3-yl)cyclobutanecarboxamide], the IC50 in assay [1] is no more than 500 nM. The Kd at TYK2 JH2 was no more than 100 nM.
The matching figures for `CNc1ncc(-c2nc3ccc(C)cn3n2)c2cc(NC(=O)[C@H]3C[C@H]3C)ncc12` [Example 562, (1S,2R)-2-methyl-N-(5-(6-methyl-[1,2,4]triazolo[1,5-a]pyridin-2-yl)-8-(methylamino)-2,7-naphthyridin-3-yl)cyclopropane-1-carboxamide]: no more than 500 nM and no more than 100 nM.
With `CNc1ncc(-c2nc3ccc(N4C[C@H]5C[C@@H]4CO5)cn3n2)c2cc(NC(=O)C3(F)CC3)ncc12` [Example 563, N-(5-(6-((1R,4R)-2-oxa-5-azabicyclo[2.2.1]heptan-5-yl)-[1,2,4]triazolo[1,5-a]pyridin-2-yl)-8-(methylamino)-2,7-naphthyridin-3-yl)-1-fluorocyclopropane-1-carboxamide], the IC50 in assay [1] is no more than 500 nM. Further, the Kd on TYK2 JH2 was no more than 100 nM.
Take `[2H]C([2H])([2H])Nc1ncc(-c2nc3ccccn3n2)c2cc(NC(=O)[C@H]3C[C@H]3F)ncc12` [Example 566, (1R,2R)—N-(5-([1,2,4]triazolo[1,5-a]pyridin-2-yl)-8-((methyl-d3)amino)-2,7-naphthyridin-3-yl)-2-fluorocyclopropane-1-carboxamide]: the IC50 in assay [1] is no more than 500 nM. The Kd at TYK2 JH2 is no more than 100 nM.
Consider `[2H]C([2H])([2H])Nc1ncc(-c2nc3ccccn3n2)c2cc(NC(=O)[C@@H]3C[C@@H]3F)ncc12` [Example 567, (1S,2S)—N-(5-([1,2,4]triazolo[1,5-a]pyridin-2-yl)-8-((methyl-d3)amino)-2,7-naphthyridin-3-yl)-2-fluorocyclopropane-1-carboxamide], for which the IC50 in assay [1] is no more than 500 nM. Besides, on TYK2 JH2, the Kd was no more than 100 nM.
Consider `[2H]C([2H])([2H])Nc1ncc(-c2nc3ccc(OC)cn3n2)c2cc(NC(=O)[C@H]3C[C@H]3F)ncc12` [Example 568, (1R,2R)-2-fluoro-N-(5-(6-methoxy-[1,2,4]triazolo[1,5-a]pyridin-2-yl)-8-((methyl-d3)amino)-2,7-naphthyridin-3-yl)cyclopropane-1-carboxamide], for which the IC50 in assay [1] is no more than 500 nM. The Kd at TYK2 JH2 is no more than 100 nM.
The matching figures for `[2H]C([2H])([2H])Nc1ncc(-c2nc3ccc(OC)cn3n2)c2cc(NC(=O)[C@@H]3C[C@@H]3F)ncc12` [Example 569, (1S,2S)-2-fluoro-N-(5-(6-methoxy-[1,2,4]triazolo[1,5-a]pyridin-2-yl)-8-((methyl-d3)amino)-2,7-naphthyridin-3-yl)cyclopropane-1-carboxamide]: no more than 500 nM and no more than 100 nM.
Turning to `[2H]C([2H])([2H])Nc1ncc(-c2nc3ccc(OC)cn3n2)c2cc(NC(=O)[C@H]3C[C@H]3C)ncc12` [Example 570, (1S,2R)—N-(5-(6-methoxy-[1,2,4]triazolo[1,5-a]pyridin-2-yl)-8-((methyl-d3)amino)-2,7-naphthyridin-3-yl)-2-methylcyclopropane-1-carboxamide], the IC50 in assay [1] is no more than 500 nM. Also, the Kd at TYK2 JH2 is no more than 100 nM.
For `[2H]C([2H])([2H])Nc1ncc(-c2nc3ccc(N4CCOCC4)cn3n2)c2cc(NC(=O)C3(F)CC3)ncc12` [Example 571, 1-fluoro-N-(8-((methyl-d3)amino)-5-(6-morpholino-[1,2,4]triazolo[1,5-a]pyridin-2-yl)-2,7-naphthyridin-3-yl)cyclopropane-1-carboxamide], in that order: no more than 500 nM and no more than 100 nM.
For `[2H]C([2H])([2H])Nc1ncc(-c2nc3ccc(N4CCOCC4)cn3n2)c2cc(NC(=O)[C@H]3C[C@H]3C)ncc12` [Example 572, (1S,2R)-2-methyl-N-(8-((methyl-d3)amino)-5-(6-morpholino-[1,2,4]triazolo[1,5-a]pyridin-2-yl)-2,7-naphthyridin-3-yl)cyclopropane-1-carboxamide], in assay [1], the IC50 was no more than 500 nM. The Kd on TYK2 JH2 was no more than 100 nM.
The matching figures for `[2H]C([2H])([2H])Nc1ncc(-c2nc3ccc(N4CCO[C@@H](C)C4)cn3n2)c2cc(NC(=O)C3(F)CC3)ncc12` [Example 576, (S)-1-fluoro-N-(8-((methyl-d3)amino)-5-(6-(2-methylmorpholino)-[1,2,4]triazolo[1,5-a]pyridin-2-yl)-2,7-naphthyridin-3-yl)cyclopropane-1-carboxamide]: no more than 500 nM and no more than 100 nM.
For `[2H]C([2H])([2H])Nc1ncc(-c2nc3ccc(C)cn3n2)c2cc(NC(=O)C3(F)CC3)ncc12` [Example 577, 1-fluoro-N-(8-((methyl-d3)amino)-5-(6-methyl-[1,2,4]triazolo[1,5-a]pyridin-2-yl)-2,7-naphthyridin-3-yl)cyclopropane-1-carboxamide], in that order: greater than 500 nM and no more than 100 nM.
Consider `[2H]C([2H])([2H])Nc1ncc(-c2nc3ccc(C)cn3n2)c2cc(NC(=O)[C@@H]3C[C@@H]3F)ncc12` [Example 578, (1S,2S)-2-fluoro-N-(8-((methyl-d3)amino)-5-(6-methyl-[1,2,4]triazolo[1,5-a]pyridin-2-yl)-2,7-naphthyridin-3-yl)cyclopropane-1-carboxamide], for which the IC50 in assay [1] is no more than 500 nM. Moreover, the Kd at TYK2 JH2 is no more than 100 nM.
`CCNc1ncc(-c2nc3ccc(N4CCOCC4)cn3n2)c2cc(NC(=O)[C@H]3C[C@H]3C)ncc12` [Example 579, (1S,2R)—N-(8-(ethylamino)-5-(6-morpholino-[1,2,4]triazolo[1,5-a]pyridin-2-yl)-2,7-naphthyridin-3-yl)-2-methylcyclopropane-1-carboxamide]: in assay [1], the IC50 is no more than 500 nM. Also, the Kd on TYK2 JH2 is no more than 100 nM.
As for `CCNc1ncc(-c2nc3ccc(N4CCOCC4)cn3n2)c2cc(NC(=O)C3(F)CC3)ncc12` [Example 580, N-(8-(ethylamino)-5-(6-morpholino-[1,2,4]triazolo[1,5-a]pyridin-2-yl)-2,7-naphthyridin-3-yl)-1-fluorocyclopropane-1-carboxamide], the IC50 in assay [1] is no more than 500 nM. The Kd on TYK2 JH2 was no more than 100 nM.
Regarding `CCNc1ncc(-c2nc3ccc(N4CC5CN(C)CC(C4)O5)cn3n2)c2cc(NC(=O)C3CC3)ncc12` [Example 581, N-(8-(ethylamino)-5-(6-(7-methyl-9-oxa-3,7-diazabicyclo[3.3.1]nonan-3-yl)-[1,2,4]triazolo[1,5-a]pyridin-2-yl)-2,7-naphthyridin-3-yl)cyclopropanecarboxamide], the IC50 in assay [1] is no more than 500 nM. Also, the Kd on TYK2 JH2 is no more than 100 nM.
With `CNc1ncc(-c2nc3ccc(N4CC5CN(C6CC6)CC(C4)O5)cn3n2)c2cc(NC(=O)C3CC3)ncc12` [Example 582, N-(5-(6-(7-cyclopropyl-9-oxa-3,7-diazabicyclo[3.3.1]nonan-3-yl)-[1,2,4]triazolo[1,5-a]pyridin-2-yl)-8-(methylamino)-2,7-naphthyridin-3-yl)cyclopropanecarboxamide], the IC50 in assay [1] was no more than 500 nM. For the same compound, the Kd on TYK2 JH2 was no more than 100 nM.
Consider `CNc1ncc(-c2nc3ccc(N4CC5COCC(C5)C4)cn3n2)c2cc(NC(=O)C3CC3)ncc12` [Example 583, N-(5-(6-(3-oxa-7-azabicyclo[3.3.1]nonan-7-yl)-[1,2,4]triazolo[1,5-a]pyridin-2-yl)-8-(methylamino)-2,7-naphthyridin-3-yl)cyclopropanecarboxamide], for which, in assay [1], the IC50 was no more than 500 nM. Also, the Kd at TYK2 JH2 is no more than 100 nM.
In the case of `CNc1ncc(-c2nc3ccc(N4CC5CCC(C4)O5)cn3n2)c2cc(NC(=O)C3CC3)ncc12` [Example 584, N-(5-(6-(8-oxa-3-azabicyclo[3.2.1]octan-3-yl)-[1,2,4]triazolo[1,5-a]pyridin-2-yl)-8-(methylamino)-2,7-naphthyridin-3-yl)cyclopropanecarboxamide], the IC50 in assay [1] is no more than 500 nM. In addition, the Kd at TYK2 JH2 was no more than 100 nM.
On to `CNc1ncc(-c2nc3ccc(N4CCOCC4)cn3n2)c2cc(Nc3ccc(C(C)(C)O)c(F)n3)ncc12` [Example 589, 2-(2-fluoro-6-((8-(methylamino)-5-(6-morpholino-[1,2,4]triazolo[1,5-a]pyridin-2-yl)-2,7-naphthyridin-3-yl)amino)pyridin-3-yl)propan-2-ol], for which the IC50 in assay [1] is no more than 500 nM. The Kd on TYK2 JH2 was no more than 100 nM.
